{
  "source": "patent US20030050233A1",
  "about": "“Peptide combination for the treatment of cancer” (DABUR ONCOLOGY PLC, priority 2001, published 2003)",
  "format_in_all_cases": "cell-based",
  "key": {"[1]": {"tested_on": "cAMP in breast cancer cells (MF7)", "experiment": "cAMP levels by enzyme linked sandwich immunosorbent assay", "settings": "30 minutes, final peptide concentration 10^-9 M, Forskolin 1 uM", "procedure": "Enzyme linked sandwich immunosorbent assay was carried out on breast cancer cells (MF7) to study the modulation in levels of cAMP upon treatment with the peptides and their combinations. The cells were cultured in sterile 6 well plates at a density of 0.5×10^6/well in DMEM supplemented with 10% FCS, and allowed to adhere overnight. The medium was changed to DMEM and the cells were treated with appropriate concentrations of the peptide and its combinations, as shown in Table-IV, for 30 minutes, such that in each case the final peptide concentration was 10^−9M.\nThe cells were coincubated with Forskolin at a concentration of 1 uM. The cells were scraped using a cell scraper and pelleted. The cell pellet was suspended in appropriate resuspension buffer (50 mM Tris, containing EDTA, 0.2 mM phenyl methyl sulfonyl fluoride (PMSF), 1 ug/ml pepstatin and 0.5 ug/ml leupeptin adjusted to pH 7.4). The cell extracts were transferred to microcentrifuge tubes and centrifuged for 5 minutes at 10000×g. cAMP standards ranging in concentrations from 200 units/ml to 0 units/ml were prepared immediately prior to the start of the assay. Fluorescein isothiocyanate (FITC) conjugated monoclonal antibody directed to cAMP was added to microtitre wells precoated with primary monoclonal antibody against cAMP. 50 ul of sample lysates, and cAMP standards were added in duplicates in the microtitre wells containing both the monoclonals to cAMP. The wells were incubated at room temperature for 2 hours. The microtitre wells were washed thrice with appropriate wash buffer (PBS 50 mM, with Tween 0.5%) and the appropriate dilution of anti FITC horse radish peroxidase conjugate was added and incubated for 30 minutes. The microtitre wells were washed thrice with the wash buffer and subsequently with distilled water. Tetra-methylbenzidine was added to each well and incubated in dark for 30 minutes at room temperature. The absorbance was measured in each well at dual wavelength of 450/595 nm within 30 minutes of the addition of stop solution and the amount of cAMP present in the cell samples calculated."}, "[2]": {"tested_on": "tyrosine phosphatase in pancreatic cancer cells (MiaPaCa2)", "experiment": "Tyrosine phosphatase induction, colorimetric", "settings": "30 minutes, final peptide concentration 10^-9 M", "procedure": "The quantitation of tyrosine phosphatase was carried out colorimetrically by using their synthetic biotin labeled tyrosine phosphorylated peptide substrates. The enzyme reaction was quenched by the addition of a specific inhibitor, and the phosphorylated and dephosphorylated substrate is immobilized by binding to the streptavidin coated microtitre plate. The fraction of the unmetabolized substrate is determined by its anti phospho tyrosine antibody directly conjugated to peroxidase.\nThe cells were cultured in sterile 6 well plates at a density of 0.5×10^6/ well in DMEM supplemented with 10% FCS, and allowed to adhere overnight. The medium was changed to DMEM. The cells were treated with appropriate concentrations peptide and their combinations shown in Table VI, for 30 minutes, such that in each case the final peptide concentration was 10^−9M.\nThe cells were lysed in appropriate lysis buffer (50 mM Tris, containing 0.2 mM PMSF, 1 ug/ml pepstatin and 0.5 ug/ml leupeptin adjusted to pH 7.4). The cell extracts were transferred to microcentrifuge tubes and centrifuged for 5 minutes at 10000×g.\nThe quantitation of phosphatase enzyme activity was performed with 30 ul of specific substrates and the reaction was quenched with the addition of 100 uM sodium orthvanadate. […] After 3 washings, 100 ul of the substrate POD was added to the wells, and the absorbance was read at 405 nm."}, "[3]": {"tested_on": "Caspase-3 in PA-1 (Ovary) cells", "experiment": "Caspase-3 induction, colorimetric DEVD-pNA, PA-1", "settings": "6 hours, each peptide 10^-8 M", "procedure": "PA-1 (Ovary) cells were cultured in 25 cm^2 tissue culture flasks at 37° C. in a humidified incubator containing 5% CO2. When cultures reached pre-confluence individual peptides of the combination and different combinations of the peptides as shown in Table VII were added to different flasks such that the final concentration of each peptide in the flask was 10^−8 M. The untreated flasks served as controls. The cells were incubated with drug for 6 hours.\nAfter 6 hours of incubation cells were collected by trypsin treatment followed by centrifugation at 2000 r.p.m. for 10 minutes. The supernatant was gently removed and discarded and Lysis Buffer was added to the cell pellet (25 ul of lysis buffer per 1×10^4 cells I a 15 ml conical tube) and incubated on ice for 10 minutes and centrifuged at 10,000-×g for 1 minute. 50 ul of supernatant(cell lysate) was transferred to the wells of a 96-well plate. 2×Reaction buffer was prepared by adding 10 ul of fresh DTT stock per 1 ml of 2×Reaction Buffer. […] Following incubation the plate was read on a microplate reader at 405 nm-wavelength light the level of caspase enzymatic activity in the cell lysate was directly proportional to the color reaction. The induction of caspase activity by the subcombinations was calculated as a percentage of control using the formula [(Sample OD/Control OD)−1]*100."}, "[4]": {"tested_on": "VEGF secreted by human breast adenocarcinoma cells (MDA.MB.453)", "experiment": "VEGF secretion ELISA", "settings": "4 hours, each peptide 10^-8 M", "procedure": "Human breast adenocarcinoma cells (MDA.MB.453) were plated at the density of 8-10×10^5 cells per 2 ml in a six well plate. After an overnight incubation of cells at 37° C., individual peptides and different combinations of the peptides as shown in Table VIII were added to different wells such that the final concentration of each peptide was 10^−8 M. The untreated wells served as controls. The plates were incubated for 4 hours at 37° C. The medium was collected from all the wells (control and treated) and spun down at 2000 r.p.m to remove the cellular material. The supernatant was collected and used for ELISA (Quantikine human VEGF, R&D Systems). The assay employs the quantitative sandwich enzyme immunoassay technique. A monoclonal antibody specific for VEGF has been pre-coated onto a microplate. Standards and samples were pipeted into the wells and VEGF present was bound by the immobilized antibody. After washing away the unbound substances, an enzyme-linked polyclonal antibody specific for VEGF was added to the wells. Following a wash to remove any unbound antibody-enzyme reagent, a substrate solution was added to the wells and color developed in proportion to the amount of VEGF bound in the initial step. The optical density of each well was determined within 30 minutes using a microplate reader set to 450 nm and reference wavelength at 540 nm."}},
  "note": "Where a SMILES comes first, the peptide text is derived from it. [ ]: non-standard residue; d: D form. The star is where a group is joined. Ac5c = NC1(C(=O)O)CCCC1; Aib = CC(C)(N)C(=O)O; Butyryl = CCCC(=O)*",
  "data": [
    {"smiles": "CSCC[C@H](NC(=O)[C@@H](N)CC(C)C)C(=O)N[C@@H](Cc1ccc(O)cc1)C(=O)N1CCC[C@H]1C(=O)N[C@H](C(=O)N[C@@H](Cc1ccc(O)cc1)C(=O)N[C@@H](CC(C)C)C(=O)N[C@@H](CCCCN)C(=O)O)[C@@H](C)O", "note": "[SEQ ID NO:1, Leu-Met-Tyr-Pro-Thr-Tyr-Leu-Lys-OH] (H-LMYPTYLK-OH; N-terminus assumed)", "values": [
      {"measurement": "Camp (% of Control)", "setting": "[1]", "value": 30, "unit": "%"}
    ]},
    {"smiles": "CCCC(=O)N[C@H](Cc1ccccc1)C(=O)N[C@@H](CCC(N)=O)C(=O)N[C@@H](Cc1c[nH]c2ccccc12)C(=O)N[C@@H](C)C(=O)N[C@H](C(=O)NC(C)(C)C(=O)N[C@@H](Cc1c[nH]cn1)C(=O)N[C@@H](CC(C)C)C(N)=O)C(C)C", "note": "[SEQ ID NO:2, Butanoyl-D-Phe-Gln-Trp-Ala-Val-Aib-His-Leu-NH2] (Butyryl-[dF]QWAV[Aib]HL-NH2)", "values": [
      {"measurement": "Camp (% of Control)", "setting": "[1]", "value": 18, "unit": "%"}
    ]},
    {"smiles": "CC(C)C[C@H](NC(=O)[C@@H](Cc1c[nH]c2ccccc12)NC(=O)[C@H](Cc1ccccc1)NC(=O)[C@@H](Cc1c[nH]c2ccccc12)NC(=O)[C@H](CCC(N)=O)NC(=O)[C@@H](Cc1ccccc1)NC(=O)[C@@H]1CCCN1C(=O)[C@H](CCCCN)NC(=O)[C@@H]1CCCN1C(=O)[C@H](N)CCCNC(=N)N)C(=O)NC1(C(N)=O)CCCC1", "note": "[SEQ ID NO:3, D-Arg-Pro-Lys-Pro-D-Phe-Gln-D-Trp-Phe-D-Trp-Leu-Ac5c-NH2] (H-[dR]PKP[dF]Q[dW]F[dW]L[Ac5c]-NH2; N-terminus assumed)", "values": [
      {"measurement": "Camp (% of Control)", "setting": "[1]", "value": 14, "unit": "%"},
      {"measurement": "% Induction of Tyrosine phosphatase", "setting": "[2]", "value": 12, "unit": "%"},
      {"measurement": "% INDUCTION of Caspase-3", "setting": "[3]", "value": 19.5, "unit": "%"},
      {"measurement": "% INHIBITION of VEGF secretion", "setting": "[4]", "value": "17.5 ± 1.9", "unit": "%"}
    ]},
    {"smiles": "C[C@@H](O)[C@H](NC(=O)[C@H]1NC(=O)C2(CCCC2)NC(=O)[C@H](CCCN)NC(=O)[C@@H](Cc2c[nH]c3ccccc23)NC(=O)[C@H](Cc2ccc(O)cc2)NC(=O)[C@@H](NC(=O)[C@H](N)Cc2ccccc2)CSSC1(C)C)C(N)=O", "note": "[SEQ ID NO:4, D-Phe-Cys-Tyr-D-Trp-Om-Ac5c -Pen-Thr-NH2]", "values": [
      {"measurement": "Camp (% of Control)", "setting": "[1]", "value": 15, "unit": "%"},
      {"measurement": "% Induction of Tyrosine phosphatase", "setting": "[2]", "value": 10, "unit": "%"},
      {"measurement": "% INDUCTION of Caspase-3", "setting": "[3]", "value": 12.4, "unit": "%"},
      {"measurement": "% INHIBITION of VEGF secretion", "setting": "[4]", "value": "12.4 ± 2.3", "unit": "%"}
    ]}
  ]
}
